Measured values as given in patent US20210322386A1, “METHODS OF DELAYING AND REVERSING ALZHEIMER'S DISEASE PROGRESSION” (Loma Linda University, priority 2018, published 2021).
Entries after “also recorded” stand apart in the source; their conditions may differ. Where two headings read alike, the source gives them in different places.

What was measured:
12-week old male mice = test: Pilot study of safety profile of anastrozole in mice (Appearance/Attitude Scores, weight gain, postmortem organs); format: in vivo
Method: A pilot study was carried out to assess the safety profile and cognitive impact of anastrozole in 12-week old male mice. Mice were fed anastrozole or placebo (vehicle alone) for a period of 8 weeks using a hydrogel as the means of administration (n=6 per group). Because of the poor palatability of anastrozole in its available form, it was administered through a hydration gel especially designed for medication delivery (LabGel-ClearH20 catalog # 71-02-1081; Portland, Me.), LabGel consists of purified water, sucralose, fruit and natural flavoring, hydrocolloids, potassium sorbate, sodium benzoate, and phosphoric acid. For each 236 mL dose of LabGel, 45 mg of anastrozole powder, 40 μL of red food coloring, and 1 mL of propylene glycol are thoroughly mixed and the resulting anastrozole is distributed into mouse cages at 3 grams LabGel/mouse/day in a custom--made container easily accessible to the mice. The final concentration of anastrozole in the LabGel is 0.1906 mg/mL and it is kept fresh by replacing it every 48 hours. In the experiment, mice consumed about 2 mL/mouse/day of LabGel equating to about 0.4 mg anastrozole/animal/day, which is consistent with the literature (Overk et al., J Neurosci Methods, 195: 194-9, 2011). Mice were monitored for health decline signs, and given an Appearance Score (Normal skin; skin tent on dorsum; hunched posture; eyes sunken in and severe skin tent; and failure to right self) and an Attitude Score (Normal; decreased activity; lethargy; non-responsiveness; and failure to flee when hand present in cage), as described (Bekkevold et al., J Am Assoc Lab Anim Sci, 52: 233-9, 2013).

CYP27A1 enzyme = target: T1, CYP27A1 enzyme (Homo sapiens, UniProt Q02318); settings: from Mast et al., Mol. Pharmacol., 2015, cited from earlier work
T1 sequence (Q02318 34-531): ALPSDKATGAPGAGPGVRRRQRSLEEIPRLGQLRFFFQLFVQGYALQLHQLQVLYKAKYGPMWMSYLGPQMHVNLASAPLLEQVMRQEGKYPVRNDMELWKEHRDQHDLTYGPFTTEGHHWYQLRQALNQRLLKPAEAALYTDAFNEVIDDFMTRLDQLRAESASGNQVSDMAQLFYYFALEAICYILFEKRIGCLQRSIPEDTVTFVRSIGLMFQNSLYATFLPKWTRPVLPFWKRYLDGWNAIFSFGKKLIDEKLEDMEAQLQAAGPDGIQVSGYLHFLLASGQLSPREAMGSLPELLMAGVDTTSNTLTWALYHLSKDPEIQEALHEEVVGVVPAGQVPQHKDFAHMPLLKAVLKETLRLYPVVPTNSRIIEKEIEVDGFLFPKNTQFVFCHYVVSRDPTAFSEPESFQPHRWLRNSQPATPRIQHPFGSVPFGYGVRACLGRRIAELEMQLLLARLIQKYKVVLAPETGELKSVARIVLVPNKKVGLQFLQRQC

[1] = system: mice fed a high-cholesterol diet; test: Y-maze test of cognitive function in mice fed a high-cholesterol diet; format: in vivo; settings: mice on high-cholesterol diet (standard chow containing 0.5% cholesterol), 8 weeks of treatment, about 0.4 mg anastrozole/animal/day in LabGel
Method: A pilot study was carried out to assess the safety profile and cognitive impact of anastrozole in 12-week old male mice. Mice were fed anastrozole or placebo (vehicle alone) for a period of 8 weeks using a hydrogel as the means of administration (n=6 per group). Because of the poor palatability of anastrozole in its available form, it was administered through a hydration gel especially designed for medication delivery (LabGel-ClearH20 catalog # 71-02-1081; Portland, Me.), LabGel consists of purified water, sucralose, fruit and natural flavoring, hydrocolloids, potassium sorbate, sodium benzoate, and phosphoric acid. […] Mice were monitored for health decline signs, and given an Appearance Score (Normal skin; skin tent on dorsum; hunched posture; eyes sunken in and severe skin tent; and failure to right self) and an Attitude Score (Normal; decreased activity; lethargy; non-responsiveness; and failure to flee when hand present in cage), as described (Bekkevold et al., J Am Assoc Lab Anim Sci, 52: 233-9, 2013).
12-week old male mice on either a normal or high-cholesterol diet were tested on the same day with an interval of 2 hours between the training 15 min) and testing (5 min) phases. Data were analyzed by one-way ANOVA and Bonferroni post-hoc test. […]

Structure (SMILES) | inhibition of the CYP27A1 enzyme (CYP27A1 enzyme) | also measured
CC(C)(C#N)c1cc(Cn2cncn2)cc(C(C)(C)C#N)c1 [anastrozole] | Inhibitors of the CYP27A1 enzyme | signs of health decline (Appearance Score and Attitude Score) (12-week old male mice; 8 weeks, about 0.4 mg anastrozole/animal/day in LabGel): No signs of health decline; postmortem evaluation of major organs (12-week old male mice; after 8 weeks): no signs of toxicity; weight gain progression vs vehicle group (12-week old male mice; throughout the 8-week study): identical between both groups; inhibition of the CYP27A1 enzyme (CYP27A1 enzyme; listed as Anastrozole): shown to inhibit the CYP27A1 enzyme; cognitive function as measured by Y-maze test [1]: protects against cognitive loss; also recorded: ameliorates the negative effect of a high-cholesterol diet on cognitive function
Cc1cccc([C@H](C)c2cnc[nH]2)c1C [dexmedetomidine] | Inhibitors of the CYP27A1 enzyme | 
N#Cc1ccc(C2CCCc3cncn32)cc1 (stereo not shown) [fadrozole] | Inhibitors of the CYP27A1 enzyme | 
CC[C@@H]([C@H](C)O)n1ncn(-c2ccc(N3CCN(c4ccc(OC[C@@H]5CO[C@@](Cn6cncn6)(c6ccc(F)cc6F)C5)cc4)CC3)cc2)c1=O [posaconazole] | Inhibitors of the CYP27A1 enzyme | 
C[C@@H](c1nc(-c2ccc(C#N)cc2)cs1)[C@](O)(Cn1cncn1)c1ccc(F)cc1F [ravuconazole] | Inhibitors of the CYP27A1 enzyme | 
